{"source": "patent US9452155B2", "about": "“Injectable antibiotic formulations and their methods of use” (BAYER NEW ZEALAND LTD, priority 2012, dated 2016)", "key": {"[1]": {"details": "20° C.; cited from earlier work"}, "[2]": {"format": "physicochemical", "from_the_text": "Thus the long term stability of PNT with triacetin (or other oily vehicles) is highly unexpected. […] After one month in accelerated stability the components of the composition appeared to degrade rapidly with a resulting colour change from an off-white to a dark yellow with dark brown sludge forming. The degradation components appeared to include a gas, resulting in the container swelling from the resultant pressure. Accordingly, the formulations described in CN 1517090 are not known to be storage stable."}, "[3]": {"details": "cited from earlier work"}}, "data": [{"smiles": "CC(=O)OCC(COC(C)=O)OC(C)=O", "note": "[Triacetin]", "values": [{"measurement": "viscosity", "setting": "[1]", "value": "approximately 23 mPas"}]}, {"smiles": "CC1(C)S[C@@H]2[C@H](NC(=O)Cc3ccccc3)C(=O)N2[C@H]1C(=O)O", "note": "[benzylpenicillin]", "values": [{"measurement": "chemical stability on storage in oily vehicles", "setting": "[2]", "value": "chemically unstable"}]}, {"smiles": "CCN(CC)CCOC(=O)[C@@H]1N2C(=O)[C@@H](NC(=O)Cc3ccccc3)[C@H]2SC1(C)C.I", "note": "[penethamate hydroiodide]", "values": [{"measurement": "time to peak serum levels (measured as dissociated penicillin G)", "setting": "[3]; after injection (Friton 2003)", "value": 3.76, "unit": "h"}, {"measurement": "share of the active drug present in its hydrolysed form (benzylpenicillin) at equilibrium", "setting": "[3]; blood pH (7.2), after intramuscular administration", "value": 91.8, "unit": "%"}]}, {"smiles": "CC1(C)S[C@@H]2[C@H](NC(=O)Cc3ccccc3)C(=O)N2[C@H]1C(=O)O.CCN(CC)CCOC(=O)c1ccc(N)cc1", "note": "[procaine penicillin]", "values": [{"measurement": "chemical stability on storage in oily vehicles", "setting": "[2]", "value": "chemically unstable"}, {"measurement": "chemical stability when substituted for penethamate in the preferred formulation", "setting": "[2]", "value": "chemically unstable"}]}]}
